Data taken from patent US20260354380A1, “PYRAZOLO PESTICIDAL COMPOUNDS” (BASF SE, priority 2022, published 2026).

How the values were obtained:
Type in all cases: in vivo
Aedes aegypti = assay: whole plant or invertebrate; details: 800 ppm; larvae; 2 days
In short: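 Freshly hatched larvae (5-15 per well) were held in tap water, and compounds formulated in 25% DMSO/water were sprayed onto diet at several concentrations in duplicate. Larval mortality was scored visually after 2 days at 28±1 °C, 80±5% RH.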

Dichromothrips corbetti = assay: Action on Orchid Thrips (Dichromothrips corbetti); details: 300 ppm; adults; 72 hours after treatment
Protocol: Example B2: Action on Orchid Thrips (Dichromothrips corbetti)
Dichromothrips corbetti adults used for bioassay were obtained from a colony maintained continuously under laboratory conditions. For testing purposes, the test compound is diluted in a 1:1 mixture of acetone: water (vol: vol), plus Kinetic® HV at a rate of 0.01% v/v.
Thrips potency of each compound was evaluated by using a floral-immersion technique. All petals of individual, intact orchid flowers were dipped into treatment solution and allowed to dryin Petri dishes. Treated petals were placed into individual re-sealable plastic along with about 20 adult thrips. All test arenas were held under continuous light and a temperature of about 28 °C for duration of the assay. After 3 days, the numbers of live thrips were counted on each petal. The percent mortality was recorded 72 hours after treatment.

Anthonomus grandis = assay: Action on Boll Weevil (Anthonomus grandis); details: 800 ppm; egg and larval mortality; 5 days
In short: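 Compounds in 75:25 water:DMSO sprayed at several concentrations onto insect diet in microtiter wells holding 5-10 eggs, two replicates. Plates kept 5 days at about 25±1 °C and 75±5% RH; egg and larval mortality scored visually.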

Heliothis virescens = assay: Action on Tobacco Budworm (Heliothis virescens); details: 800 ppm; egg and larval mortality; 5 days
In short: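 Compounds in 25% DMSO/75% water were sprayed at several concentrations onto insect diet in microtiter wells holding 15-25 eggs, two replications. After 5 days at about 28±1 °C and 80±5% RH, egg and larval mortality was scored visually.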

Plutella xylostella = assay: Action on Diamond Back Moth (Plutella xylostella), cabbage leaf dip, 3rd instar larvae; details: 300 ppm; 3rd instar larvae; 72 hours after treatment
In short: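 Cabbage leaves dipped in compound solution (1:1 water:acetone, 0.01% v/v surfactant), air-dried, then infested with ten 3rd-instar larvae in petri dishes on moist filter paper. Mortality scored at 72 h after treatment; feeding damage rated on a 0–100% scale.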

Spodoptera eridania = assay: Action on Southern Armyworm (Spodoptera eridania), 2nd Instar Larvae; details: 300 ppm; 2nd instar larvae; 4 days after treatment
In short: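 Compounds in 50% acetone/water with 0.01% nonionic surfactant sprayed electrostatically onto Lima bean plants at 1st true leaf stage. After drying, 10–11 2nd-instar larvae bagged with each pot, kept about 25 °C, 20–40% RH. Mortality and reduced feeding scored at 4 days vs untreated plants.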

Row | SMILES | mortality in comparison with untreated controls (Aedes aegypti) | mortality in comparison with untreated controls (Dichromothrips corbetti) | mortality in comparison with untreated controls (Anthonomus grandis) | mortality in comparison with untreated controls (Heliothis virescens) | mortality in comparison with untreated controls (Plutella xylostella) | mortality in comparison with untreated controls (Spodoptera eridania)
1 | Cc1nn(-c2ccc(NC(=O)N=C3SCC(=O)N3c3cc(C#N)ccc3C(C)C)cc2)cc1NC(=O)c1ccc(OC(F)(F)F)cc1 [Example C-10] | at least 50% | at least 75% | at least 75% | at least 75% | at least 75% | at least 75%
2 | Cc1ccc(C(F)(F)F)c(N2C(=O)CSC2=NC(=O)Nc2ccc(-n3cc(N(C)C(=O)c4ccc(OC(F)(F)F)cc4)c(C)n3)cc2)c1 [Example C-11] | at least 50% | at least 75% | at least 75% | at least 75% | at least 75% | at least 75%
3 | Cc1nn(-c2ccc(NC(=O)/N=C3\SCC(=O)N3c3cc(N(C)C)ccc3C(C)C)cc2)c(C)c1NC(=O)c1ccc(OC(F)(F)F)cc1 [Example C-17] | at least 50% | at least 75% | at least 75% | at least 75% | at least 75% | at least 75%
4 | Cc1ccc(C(C)C)c(N2C(=O)CS/C2=N\C(=O)Nc2ccc(-n3nc(C)c(NC(=O)c4ccc(OC(F)(F)F)cc4)c3C)cc2C)c1 [Example C-18] | at least 50% | at least 75% | at least 75% | at least 75% | at least 75% | at least 75%
5 | Cc1ccc(C(C)C)c(N2C(=O)CS/C2=N\C(=O)Nc2ccc(-n3nc(C)c(NC(=O)c4ccc(OC(F)(F)F)cc4)c3C)cc2Br)c1 [Example C-19] | at least 50% | at least 75% | at least 75% | at least 75% | at least 75% | at least 75%
6 | Cc1ccc(C(C)C)c(N2C(=O)CS/C2=N\C(=O)Nc2ccc(-n3nc(C)c(NC(=O)c4ccc(OC(F)(F)F)cc4)c3C)cc2OC(F)F)c1 [Example C-20] | at least 50% | at least 75% | at least 75% | at least 75% | at least 75% | at least 75%
7 | Cc1ccc(C(C)C)c(N2C(=O)CS/C2=N\C(=O)Nc2ccc(-n3cc(NC(=O)c4cc(F)c(F)c(F)c4)c(C)n3)cc2)c1 [Example C-23] | at least 50% | at least 75% | at least 75% | at least 75% | at least 75% | at least 75%
